Residue numbers refer to the chain shown, from its start. pIC50, pKd: −log10 of the molar value. Where two headings read alike, the source gives them in different places.
Key:
mutant MGL = molecular target: T1, mutant MGL (Homo sapiens, UniProt Q99685, L169S/L176S); experiment: MGL ThermoFluor assay - mutant; format: binding
T1 construct: purified mutant MGL (mut-MGLL 11-313 L179S L186S)
T1 sequence (Q99685 1-303 L169S/L176S): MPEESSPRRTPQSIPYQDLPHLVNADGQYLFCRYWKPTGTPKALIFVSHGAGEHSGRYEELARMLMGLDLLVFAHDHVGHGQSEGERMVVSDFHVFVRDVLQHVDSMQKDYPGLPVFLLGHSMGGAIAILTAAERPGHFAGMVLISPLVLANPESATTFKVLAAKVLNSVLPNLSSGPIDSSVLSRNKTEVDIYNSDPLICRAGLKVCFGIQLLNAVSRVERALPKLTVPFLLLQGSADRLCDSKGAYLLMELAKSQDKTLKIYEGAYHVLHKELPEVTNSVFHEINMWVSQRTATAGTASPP
Description: The ThermoFluor (TF) assay is a 384-well plate-based binding assay that measures thermal stability of proteins^1,2. The experiments were carried out using instruments available from Johnson & Johnson Pharmaceutical Research & Development, LLC. TF dye used in all experiments was 1,8-ANS (Invitrogen: A-47). Final TF assay conditions used for MGL studies were 0.07 mg/ml of mutant MGL, 100 μM ANS, 200 mM NaCl, 0.001% Tween-20 in 50 mM PIPES (pH=7.0).
Screening compound plates contained 100% DMSO compound solutions at a single concentration. For follow-up concentration-response studies, compounds were arranged in a pre-dispensed plate (Greiner Bio-one: 781280), wherein compounds were serially diluted in 100% DMSO across 11 columns within a series. Columns 12 and 24 were used as DMSO reference and contained no compound. For both single and multiple compound concentration-repsonse experiments, the compound aliquots (46 nL) were robotically predispensed directly into 384-well black assay plates (Abgene: TF-0384/k) using the Hummingbird liquid handler. Following compound dispension, protein and dye solutions were added to achieve the final assay volume of 3 μL. The assay solutions were overlayed with 1 μl of silicone oil (Fluka, type DC 200: 85411) to prevent evaporation.
Bar-coded assay plates were robotically loaded onto a thermostatically controlled PCR-type thermal block and then heated from 40 to 90° C. degrees at a ramp-rate of 1° C./min for all experiments. Fluorescence was measured by continuous illumination with UV light (Hamamatsu LC6), supplied via fiber optics and filtered through a band-pass filter (380-400 nm; >6 OD cutoff). Fluorescence emission of the entire 384-well plate was detected by measuring light intensity using a CCD camera (Sensys, Roper Scientific) filtered to detect 500±25 nm, resulting in simultaneous and independent readings of all 384 wells. A single image with 20-sec exposure time was collected at each temperature, and the sum of the pixel intensity in a given area of the assay plate was recorded vs temperature and fit to standard equations to yield the Tm^1. • 1. Pantoliano, M. W., Petrella, E. C., Kwasnoski, J. D., Lobanov, V. S., Myslik, J., Graf, E., Carver, T., Asel, E., Springer, B. A., Lane, P., and Salemme, F. R. (2001) J Biomol Screen 6, 429-40. • 2. Matulis, D., Kranz, J. K., Salemme, F. R., and Todd, M. J. (2005) Biochemistry 44, 5258-66.
The Kd values for compounds of Formula (I) were determined from a fit of the equation to the concentration-response plot of the fractional activity as a function of Tm. For some experiments, quantitative NMR spectroscopy (qNMR) was used to measure concentration of the initial 100% DMSO compound solutions and, using the same fitting method, qKd values were determined

MGL = molecular target: T2, MGL (Rattus norvegicus, UniProt Q8R431); experiment: 2-AG accumulation assay in rat brain homogenate; format: biochemical; settings: compound @1 μM, read-out: Rat Brain 2AG % VehCntrl (%) @1 μM
T2 construct: one g rat brain was homogenized; from tissue; host or cells: rat brain homogenate
T2 sequence (Q8R431 1-303): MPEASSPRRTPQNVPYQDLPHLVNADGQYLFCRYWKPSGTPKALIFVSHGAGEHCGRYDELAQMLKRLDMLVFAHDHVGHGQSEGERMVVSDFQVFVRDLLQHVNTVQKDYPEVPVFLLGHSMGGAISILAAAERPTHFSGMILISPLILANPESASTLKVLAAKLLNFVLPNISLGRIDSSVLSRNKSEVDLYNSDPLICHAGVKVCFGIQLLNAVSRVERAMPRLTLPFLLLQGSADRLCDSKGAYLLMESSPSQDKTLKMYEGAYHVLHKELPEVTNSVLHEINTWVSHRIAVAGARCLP
Description: After a 15-min incubation time at 37° C., CaCl2 (final concentration=10 mM) was added and then incubated for 15 min at 37° C. in a total volume of 5 mL. The reactions were stopped with 6 mL organic solvent extraction solution of 2:1 chloroform/methanol. Accumulated 2-AG in the organic phase was measured by a HPLC/MS method, according to the following equation: percent vehicle=(2-AG accumulation in the presence of compound/2-AG accumulation in vehicle)×100.

[1] = molecular target: T3, purified wild type MGL (wt-MGLL 6H-11-313) (Homo sapiens, UniProt Q99685); experiment: MGL enzyme activity assay (4MU-B cleavage), wild type MGL; format: biochemical; settings: 10 μM 4MU-B, 5 nM enzyme, 37° C., read-out: MGL wild type inh IC50
T3 construct: purified wild type MGL (wt-MGLL 6H-11-313)
T3 sequence (Q99685 1-303): T1 sequence (Q99685 1-303 L169S/L176S) with S169L, S176L
Description: All rate-based assays were performed in black 384-well polypropylene PCR microplates (Abgene) in a total volume of 30 μL. Substrate 4-methylumbelliferyl butyrate (4MU-B; Sigma) and either purified mutant MGL (mut-MGLL 11-313 L179S L186S) or purified wild type MGL (wt-MGLL 6H-11-313) were diluted separately into 20 mM PIPES buffer (pH=7.0), containing 150 mM NaCl and 0.001% Tween 20. Compounds of Formula (I) were pre-dispensed (50 nL) into the assay plate using a Cartesian Hummingbird prior to adding 4MU-B (25 μL of 1.2× solution to a final concentration of 10 μM) followed by enzyme (5 μL of a 6× solution to a final concentration of 5 nM) to initiate the reaction. Final compound concentrations ranged from 17 to 0.0003 μM. The fluorescence change due to 4MU-B cleavage was monitored with excitation and emission wavelengths of 335 and 440 nm, respectively, and a bandwidth of 10 nm (Safire^2, Tecan) at 37° C. for 5 min.
The IC50 values for compounds of Formula (I) were determined using Excel from a fit of the equation to the concentration-response plot of the fractional activity as a function of inhibitor concentration.

[2] = 0.07 mg/ml mutant MGL, pH=7.0, read-out: MGL mutant ThermoFluor Kd
[3] = compound concentration measured by qNMR, read-out: MGL mutant ThermoFluor qKd (using qNMR conc.)

`O=C(c1ccc[nH]1)N1CC(C2CCN(C(=O)c3ccc(-c4ccccc4)cc3F)CC2)C1` [Cpd 47, 1-[(3-Fluorobiphenyl-4-yl)carbonyl]-4-[1-(1H-pyrrol-2-ylcarbonyl)azetidin-3-yl]piperidine] was tested, and the pKd (mutant MGL; [2]) was 7.12, the pKd (mutant MGL; [3]) was 7.48 and the 2-AG accumulation, percent of vehicle control at 1 µM (MGL) was 153%. It also gave a pIC50 [1] of 7.42.
`O=C(c1ccc(Cc2cccc(C(F)(F)F)c2)cc1)N1CCC(C2CN(C(=O)c3nccs3)C2)CC1` [Cpd 57, 4-[1-(1,3-Thiazol-2-ylcarbonyl)azetidin-3-yl]-1-({4-[3-(trifluoromethyl)benzyl]phenyl}carbonyl)piperidine] showed a pKd (mutant MGL; [3]) of 8.23, a 2-AG accumulation, percent of vehicle control at 1 µM (MGL) of 869% and a pIC50 [1] of 7.77.
`O=C(c1ccc2c(c1)[nH]c(=O)n2-c1ccccc1)N1CC(C2CCN(C(=O)c3nccs3)CC2)C1` [Cpd 96, 1-Phenyl-5-({3-[1-(1,3-thiazol-2-ylcarbonyl)piperidin-4-yl]azetidin-1-yl}carbonyl)-1,3-dihydro-2H-benzimidazol-2-one] was tested, and the pKd (mutant MGL; [3]) was 7.61 and the pIC50 [1] was 7.11.
Work on `O=C(c1cccc(-c2cccc(F)c2)c1)N1CC(C2CCN(C(=O)c3ccc[nH]3)CC2)C1` [Cpd 23, 4-{1-[(3′-Fluorobiphenyl-3-yl)carbonyl]azetidin-3-yl}-1-(1H-pyrrol-2-ylcarbonyl)piperidine] yielded a pKd (mutant MGL; [2]) of 6.30 and a pIC50 [1] of 6.43.
`O=C(c1cccc(-c2cccc(F)c2)c1)N1CC(C2CCN(C(=O)c3cscn3)CC2)C1` [Cpd 11, 4-{1-[(3′-Fluorobiphenyl-3-yl)carbonyl]azetidin-3-yl}-1-(1,3-thiazol-4-ylcarbonyl)piperidine] was tested, and the pKd (mutant MGL; [2]) was 6.14 and the pIC50 [1] was 6.30.
`O=C(c1cc2ccc(C(F)(F)F)cc2s1)N1CC(C2(O)CCN(C(=O)c3nccs3)CC2)C1` [Cpd 94, 1-(1,3-Thiazol-2-ylcarbonyl)-4-(1-{[6-(trifluoromethyl)-1-benzothiophen-2-yl]carbonyl}azetidin-3-yl)piperidin-4-ol] was tested, and the pKd (mutant MGL; [3]) was 7.60 and the pIC50 [1] was 8.00.
`O=C(c1ccc2c(c1)ncn2-c1ccc(C(F)(F)F)cc1)N1CC(C2CCN(C(=O)c3nccs3)CC2)C1` [Cpd 83, 5-({30[1-(1,3-Thiazol-2-ylcarbonyl)piperidin-4-yl]azetidin-1-yl}carbonyl)-1-[4-(trifluoromethyl)phenyl]-1H-benzimidazole] showed a pKd (mutant MGL; [3]) of 7.87 and a pIC50 [1] of 8.04.
For `O=C(c1ccc2c(c1)ncn2CC(F)(F)F)N1CC(C2CCN(C(=O)c3nccs3)CC2)C1` [Cpd 84, 5-({3-[1-(1,3-Thiazol-2-ylcarbonyl)piperidin-4-yl]azetidin-1-yl}carbonyl)-1-(2,2,2-trifluoroethyl)-1H-benzimidazole], the pKd (mutant MGL; [3]) was 7.18 and the pIC50 [1] was 6.76.
`O=C(c1ccc2c(ccn2-c2ccc(F)c(F)c2)c1)N1CCC(C2CN(C(=O)c3nccs3)C2)CC1` [Cpd 78, 1-(3,4-Difluorophenyl)-5-({4-[1-(1,3-thiazol-2-ylcarbonyl)azetidin-3-yl]piperidin-1-yl}carbonyl)-1H-indole] showed a pKd (mutant MGL; [3]) of 8.64 and a pIC50 [1] greater than 8.30.
`O=C(c1ccc2c(c1)[nH]c(=O)n2CCC(F)(F)F)N1CC(C2CCN(C(=O)c3nccs3)CC2)C1` [Cpd 100, 5-({3-[1-(1,3-Thiazol-2-ylcarbonyl)piperidin-4-yl]azetidin-1-yl}carbonyl)-1-(3,3,3-trifluoropropyl)-1,3-dihydro-2H-benzimidazol-2-one] showed a pKd (mutant MGL; [3]) of 7.05 and a pIC50 [1] of 7.00.
Work on `Cc1nc2cc(C(=O)N3CC(C4CCN(C(=O)c5nccs5)CC4)C3)ccc2n1-c1ccc(C(F)(F)F)cc1` [Cpd 89, 2-Methyl-5-({3-[1-(1,3-thiazol-2-ylcarbonyl)piperidin-4-yl]azetidin-1-yl}carbonyl)-1-[4-(trifluoromethyl)phenyl]-1H-benzimidazole] yielded a pKd (mutant MGL; [3]) of 8.11 and a pIC50 [1] of 7.47.
`Cc1nc2cc(C(=O)N3CC(C4CCN(C(=O)c5nccs5)CC4)C3)ccc2n1C1CCC(F)(F)CC1` [Cpd 92, 1-(4,4-Difluorocyclohexyl)-2-methyl-5-({3-[1-(1,3-thiazol-2-ylcarbonyl)piperidin-4-yl]azetidin-1-yl}carbonyl)-1H-benzimidazole] showed a pKd (mutant MGL; [3]) of 8.47 and a pIC50 [1] of 6.79.
`O=C(c1ccc(-c2cccc(C(F)(F)F)c2)cc1)N1CCC(C2CN(C(=O)c3nccs3)C2)CC1` [Cpd 48, 4-[1-(1,3-Thiazol-2-ylcarbonyl)azetidin-3-yl]-1-{[3′-(trifluoromethyl)biphenyl-4-yl]carbonyl}piperidine] showed a pKd (mutant MGL; [3]) of 9.00 and a pIC50 [1] greater than 8.30.
`O=C(c1ccc2c(ccn2-c2ccc(F)c(F)c2)c1)N1CC(C2CCN(C(=O)c3nccs3)CC2)C1` gave a pKd (mutant MGL; [2]) of 9.22 and a pIC50 [1] greater than 8.30.
`O=C(c1ccc2c(c1)[nH]c(=O)n2-c1ccc(C(F)(F)F)cc1)N1CC(C2CCN(C(=O)c3nccs3)CC2)C1` [Cpd 99, 5-({3-[1-(1,3-Thiazol-2-ylcarbonyl)piperidin-4-yl]azetidin-1-yl}carbonyl)-1-[4-(trifluoromethyl)phenyl]-1,3-dihydro-2H-benzimidazol-2-one] gave a pKd (mutant MGL; [3]) of 7.78 and a pIC50 [1] of 7.76.
In the case of `O=C(c1ccc(-c2ccccc2)cc1)N1CC(C2CCN(C(=O)c3cncs3)CC2)C1` [Cpd 5, 4-[1-(Biphenyl-4-ylcarbonyl)azetidin-3-yl]-1-(1,3-thiazol-5-ylcarbonyl)piperidine], the pKd (mutant MGL; [2]) was 7.19 and the pIC50 [1] was 7.06.
